Test system: GRM2 locus in HEK293T cells
Assay: ChIP-qPCR of FLAG-ABI-P300 and H3K27Ac at the GRM2 locus
Format: cell-based, human
Experimental: To determine if the new method can be used to modify H3K27Ac at other gene loci, sgRNAs were designed that target the promoter region of other genes with low expression levels in HEK293T cells, including GRM2, HBA and MYOD1 (Table 1).
Human embryonic kidney cell HEK293T (American Type Culture Collection, Manassas, Va.) was cultured in Dulbecco's modified Eagle's medium (DMEM) (Gibco) with 10% FBS (Atlanta Biologicals), 1× GlutaMax (Gibco, Thermo Fisher Scientific, Inc., Waltham, Mass.), and 1× penicillin/streptomycin (Pen/Strep; Gibco, Thermo Fisher Scientific, Inc., Waltham, Mass.). Cells (100,000/ml) were plated in 24-well or 10-cm cell culture plate the day before transfection. For each well of 24-well plate transfection, 500 ng of dCas9-PYL-HA, 420 ng of FLAG-ABI-P300, and a total amount of 200-ng mix of gRNAs, with a 50-ng per each gRNA, were mixed with 50×(v/w) Opti-MEM (Gibco, Thermo Fisher Scientific, Inc., Waltham, Mass.), then incubate with the same volume of 3 μg PEI-Opti-MEM solution for 20 minutes at room temperature. Then, 100 μL of PEI-combined plasmids were added to every single well of 24-well plate and cultured for 24 hours before experiments were performed. For a 10 cm plate, 1 mL of PEI-combined plasmids were needed. After six hours transfection, cells were washed and incubated for another 1-72 hours before experiments were performed.
ChIP protocol was optimized from the method in Molecular Cloning, Fourth edition (Cold Spring Harbor Laboratory Press, 2012). In brief, cells cultured in a 10-cm plate were fixed with 1 mL of cross-linking buffer (0.1 M NaCl, 1 mM EDTA, 0.5 mM EGTA, 50 mM HEPES and 11% formaldehyde), and shaken in room temperature for 15 minutes. Then 1.1 mL of 1.25 M glycine was added to the solution to stop crosslinking. After washing three times in ice cold PBS, cells were scraped and suspended in 10 mL of lysis buffer (50 mM HEPES, 140 mM NaCl, 1 mM EDTA, 10% Glycerol, 0.5% NP40, 0.25% Triton X-100), and rocked at 4° C. for 10 minutes. […]

[1] = GRM2 sgRNAs, ABA treatment for 48 hours

CC1=CC(=O)CC(C)(C)[C@@]1(O)/C=C/C(C)=C\C(=O)O [ABA, abscisic acid]
induction and reversibility of H3K27Ac enrichment at the GRM2 locus (ABA 4-24 hours, then washing and 24 hours without ABA): rapidly induced upon ABA addition and reversed after ABA removal
enrichment of FLAG-ABI-P300 at the GRM2 locus [1]: causes the enrichment
enrichment of H3K27Ac at the GRM2 locus [1]: causes the enrichment

Reference: patent US20190256827A1, “EPIGENOME EDITING SYSTEMS AND METHODS” (STC.UNM, priority 2017, published 2019)
